According to paper PMC12040169 (PLOS Biology, 2025):

Experiment: in vitro
Conditions: human, hela cells

For `O=P(O)(O)/C=C(\Cl)c1ccccc1` [CBK261019], the viability at 28.5 h, 10 µM was 97.8%.

Same assay, conditions: human, hela cells, % viability

Point of comparison: `Oc1ccc(/C=N/c2nnn[nH]2)cc1` [CBK260976], viability at 28.5 h, 10 µM 101%. Against it:
- CCOC(=O)c1c(NC(=O)Cn2cnc3ccccc32)sc2c1CCCC2 [CBK260917] — higher, 106%
- O=[N+]([O-])c1ccc(O)c(/C=N/Nc2nc(Nc3ccc(Cl)cc3)nc(N3CCOCC3)n2)c1 [CBK260918] — lower, 90.2%
- C/C(=N/Nc1ccc([N+](=O)[O-])cc1[N+](=O)[O-])C1CC1 [CBK260921] — higher, 104%
- O=C1/C(=N\Nc2ccc([N+](=O)[O-])cc2[N+](=O)[O-])c2ccccc2N1CN1CCCCC1 [CBK260926] — lower, 94.4%
- O=C1/C(=N\Nc2ccc([N+](=O)[O-])cc2[N+](=O)[O-])c2cc(Br)ccc2N1CN1CCCCC1 [CBK260927] — higher, 110%
- OCCOc1ccccc1OCCO [CBK260930] — lower, 93.6%
- O=C(O)CC(CP(c1ccccc1)c1ccccc1)C(=O)O (centres unmarked) [CBK260931] — lower, 77.6%
- CC(C)(C)NS(=O)(=O)c1ccccc1[N+](=O)[O-] [CBK260932] — lower, 97.8%
- O=C(O)CCCC(=O)OCc1ccco1 [CBK260933] — lower, 98.1%
- O=S(=O)(O)c1cc(O)c2c(/N=N/c3c(S(=O)(=O)O)cc4cc(S(=O)(=O)O)cc(O)c4c3O)cc(S(=O)(=O)O)cc2c1 [CBK260934] — higher, 102%
- C/C(=N\NC(=O)c1ccccc1I)c1cccc(N)c1 [CBK260935] — higher, 107%
- O=C(O)/C=C(/CC(=O)O)C(=O)O [CBK260936] — higher, 102%
- O=C(NC(Cc1ccc(O)cc1)C(=O)O)c1ccccc1 (centres unmarked) [CBK260937] — lower, 88.4%
- CC(CSSCC(C)C(=O)O)C(=O)O (centres unmarked) [CBK260940] — lower, 96.7%
- CC(Cc1c[nH]c2ccccc12)NC(=O)CSS(=O)(=O)O (centres unmarked) [CBK260942N] — lower, 93.3%
- COc1ccc2[nH]c(C(=O)O)c(CCNC(C)=O)c2c1 [CBK260943N] — higher, 113%
- CC(=O)c1ccc2[nH]c(C(=O)O)c(CCN)c2c1 [CBK260944] — lower, 91.6%
- CC(=O)NCCc1c(C(=O)O)[nH]c2ccc(OCc3ccccc3)cc12 [CBK260945] — lower, 87.8%
- CCn1c(C)nc2cc(S(N)(=O)=O)ccc21 [CBK260950] — lower, 92.1%
- O=C(O)CCC(=O)Nc1ccc(C(=O)O)cc1 [CBK260952] — lower, 96.6%
- O=S(=O)(Nc1nc2ccccc2nc1Nc1ccccc1)c1ccccc1 [CBK260953] — lower, 94.5%
- O=C(O)C(O)C(O)c1nc2ccccc2[nH]1 (centres unmarked) [CBK260955] — higher, 107%
- N#Cc1ccc(Oc2ccc(C(=O)C(=O)c3ccccc3)cc2)cc1C#N [CBK260959] — lower, 100%
- CC(C)(c1ccc(OC(=O)c2ccc(N)cc2)cc1)c1ccc(OC(=O)c2ccc(N)cc2)cc1 [CBK260962] — lower, 91.2%
- O=C(CCN1C(=O)c2ccccc2C1=O)N1CCOCCOCCN(C(=O)CCN2C(=O)c3ccccc3C2=O)CCOCCOCC1 [CBK260964] — lower, 89.9%
- NC(=O)CCC(NC=O)C(=O)O (centres unmarked) [CBK260967] — lower, 88.4%
- CC(C(=O)O)c1cc(C(=O)c2ccccc2)sc1-c1ccccc1 (centres unmarked) [CBK260968] — lower, 91.3%
- Cc1ccc(N)c(C(=O)CCCCC(=O)O)c1 [CBK260970] — lower, 90.5%
- O=[N+]([O-])c1ccccc1/C=N/Nc1nnn[nH]1 [CBK260971] — higher, 106%
- Oc1ccc(/C=N/Nc2nnn[nH]2)c(O)c1 [CBK260972] — lower, 99%
- c1ccc2c(c1)n[n+]1c3ccccc3[n-]n21 [CBK260974] — lower, 85.7%
- Cc1cc(C)nc(SCCC(=O)O)n1 [CBK260975] — lower, 87.7%
- Oc1cccc(/C=N/c2nnn[nH]2)c1 [CBK260977] — lower, 91.7%
- O=C1C2C(c3ccccc3)NC(c3ccccc3)C1C(c1ccccc1)NC2c1ccccc1 (centres unmarked) [CBK260981] — lower, 93%
- COc1cccc(/C=C/C2=NN(c3cccc(F)c3)C(c3cccc(OC)c3OC)C2)c1OC (centres unmarked) [CBK260983] — higher, 104%
- Cc1ccc(S(=O)(=O)OCCOS(=O)(=O)c2ccc(C)cc2)cc1 [CBK260986] — lower, 96.2%
- O=C(O)/C=C/C(=O)Nc1cccc(C(=O)O)c1 [CBK260988] — lower, 97.7%
- O=C(O)/C=C\C(=O)NCC(=O)O [CBK260989] — lower, 93.5%
- N=C(N)SCC1CNC(=N)S1 (centres unmarked) [CBK260991] — lower, 99.3%
- NNC(=O)c1ccc(Oc2ccc(C(=O)NN)cc2)cc1 [CBK260995] — lower, 85.7%
- CN(CC(=O)O)c1ccccc1C(=O)O [CBK260996] — lower, 98.2%
- O=S(=O)([O-])c1cc(S(=O)(=O)O)ccc1Nc1cc2c(nc3ccccc3[n+]2-c2ccccc2)c2ccccc12 [CBK260997N] — higher, 102%
- [N-]=[N+]=NC1C2OCC(O2)C(OCc2ccccc2)C1O (centres unmarked) [CBK261000] — lower, 90.1%
- CCOC(=O)CCCCNC(O)C(Cl)(Cl)Cl (centres unmarked) [CBK261003C] — higher, 106%
- CC1(C)C(N(O)C(=O)Nc2cccc3ccccc23)N(c2cccc3ccccc23)C(=O)N1CC(=O)NN (centres unmarked) [CBK261004] — lower, 88.2%
- O=C(O)C1CSC(c2ccccc2)N1 (centres unmarked) [CBK261008] — higher, 114%
- CN1C(=O)/C(=C2\SC(=S)N(C(CCC(=O)O)C(=O)O)C2=O)c2ccccc21 (centres unmarked) [CBK261010] — lower, 92.3%
- O=C(O)CCC(C(=O)O)N1C(=O)/C(=C\C(Cl)=C/c2ccc([N+](=O)[O-])cc2)SC1=S (centres unmarked) [CBK261011] — lower, 92.1%
- CN1C(=O)/C(=C2\SC(=S)N(C(CC(=O)O)C(=O)O)C2=O)c2ccccc21 (centres unmarked) [CBK261012] — higher, 107%
- O=C(O)CC(C(=O)O)N1C(=O)/C(=C\C(Cl)=C/c2ccc([N+](=O)[O-])cc2)SC1=S (centres unmarked) [CBK261013] — lower, 99.2%
- Nc1n[nH]c(CCCc2nc(N)n[nH]2)n1 [CBK261016] — lower, 89.8%
- c1ccc(-c2cc(-c3ccccc3)n3nc(Cc4nc5nc(-c6ccccc6)cc(-c6ccccc6)n5n4)nc3n2)cc1 [CBK261017] — lower, 93.1%
- CCC(=O)NC(N(Cc1ccccc1)Cc1ccccc1)C(Cl)(Cl)Cl (centres unmarked) [CBK261022] — lower, 90.9%
- O=C(NC(N1CCCCC1)C(Cl)(Cl)Cl)c1ccc(Cl)cc1Cl (centres unmarked) [CBK261024] — lower, 91.6%
- O=C(O)c1ccc(NC(S)=NC(NC(=O)c2ccco2)C(Cl)(Cl)Cl)cc1 (centres unmarked) [CBK261025] — lower, 96.2%
- CCC(=O)NC(NC(=S)Nc1cccc2cccnc12)C(Cl)(Cl)Cl (centres unmarked) [CBK261027] — lower, 96.1%
- NC(=O)COc1ccccc1O [CBK261029] — higher, 111%
- COc1ccc(OCc2nc3ccccc3[nH]2)cc1 [CBK261030] — lower, 94.8%
- O=C(NC1CCS(=O)(=O)C1)/C(=C\c1ccccc1)NC(=O)c1ccc([N+](=O)[O-])cc1 (centres unmarked) [CBK261034] — higher, 106%
- O=C(NC(C(=O)c1ccccc1)N1CCCCC1)c1ccccc1 (centres unmarked) [CBK261035] — higher, 123%
- O=C(NC(n1cnc2c(N3CCCCC3)ncnc21)C(Cl)(Cl)Cl)c1ccccc1 (centres unmarked) [CBK261038] — lower, 98.5%
- COc1cc(C(=O)NCC(=O)O)cc(OC)c1OC [CBK261039] — lower, 89.9%

Same assay, conditions: human, hela cells, % viability, bulk resorufin, single well

`NCCc1c[nH]c2ccc(OCc3ccccc3)cc12` [CBK260980C] gave a viability at 28.5 h, 10 µM of 84.9%.
